Here are results for seven compounds from patent publication US5869699A, “1,2 chemiluminescent dioxetanes of improved performance” (Tropix, Inc., priority 1997, dated 1999).

Where a name gives a salt, the structure may show the parent alone.

Experiment [1] has as its system Alkaline phosphatase. Nature of the experiment: Peak light intensity of dephosphorylated dioxetanes. The format is biochemical. Conditions: for PEAK INTENSITY: 0.004 mM dioxetane, 30° C., 0.1M diethanolamine, 1 mM MgCl2, pH 10, alkaline phosphatase 1.05×10^-9 M. On the procedure:
Determination of the Peak Light Intensity of Dephosphorylated Dioxetanes
A 0.5 mL aliquot of dioxetane (0.004 mM) was equilibrated to 30° C. in 0.1M diethanolamine, 1 mM MgCl2, pH 10. Alkaline phosphatase (final concentration of 1.05×10^-9 M) was added to the tube and the chemiluminescent signal was measured in a Turner TD-20E luminometer for 10 to 20 minutes.

The subject of experiment [2] is Alkaline phosphatase. Nature of the experiment: Chemiluminescence half-life of dephosphorylated dioxetane. The format is biochemical. The settings on record: for T1/2 (chemiluminescence half-life): 0.004 mM dioxetane, 30° C., 0.1M diethanolamine, 1 mM MgCl2, pH 10, alkaline phosphatase 1.05×10^-9 M, no enhancer; for t1/2 (chemiluminescence half-life): in a buffer solution; for T1/2 (chemiluminescence half-life), with Sapphire II enhancer: Sapphire II enhancer: 0.1M diethanolamine, 1 mM MgCl2, 10% polyvinylbenzyltributyl ammonium chloride at 1 mg/mL. On the procedure:
Determination of the Chemiluminescence Half-Life of Dephosphorylated Dioxetane.
A 1 mL aliquot of each dioxetane (0.004 mM) was equilibrated to 30° C. in 0.1M diethanolamine, 1 mM MgCl2, pH 10. Alkaline phosphatase (at final concentration of 1.05×10^-9 M) was added to the test tube and the chemiluminescent signal kinetics was measured in a Turner TD-20E luminometer for 10 to 20 minutes. The half-life was calculated from the plot of log RLU versus time. For TFE and TFE-ADP-Star, the chemiluminescent half-life was also determined in the presence of Sapphire II enhancer (in 0.1M diethanolamine, 1 mM MgCl2, 10% polyvinylbenzyltributyl ammonium chloride at 1 mg/mL).

Experiment [3] has as its system biotinylated pBR322(35 mer). As to the kind of experiment: Detection of biotinylated pBR322 (35 mer) on nylon membrane. The settings on record: for DNA CONC. (detection sensitivity): 5 minute exposure, 0.25 mM dioxetane, nylon membrane, pH 9.5 for CSPD and TFE, pH 9.0 for CDP-Star and TFE-ADP-Star. An excerpt: Detection of Biotinylated pBR322(35 mer) on Nylon Membrane
Serial dilutions of biotinylated pBR322 (35 mer) were spotted onto strips of Tropilon-Plus nylon membrane. Spots correspond to 210 pg, 70 pg, 23.3 pg, 7.7 pg, 2.6 pg, 0.86 pg, 0.29 pg, 0.10 pg, 32.0 fg, 10.7 fg, 3.6 fg and 1.2 fg of biotinylated pBR322(35 mer). After spotting, the DNA was cross-linked to the membrane by UV fixation, the membranes were blocked with 0.2% I-Block, 5% sodium dodecyl sulfate (SDS) in phosphate buffered saline(PBS) (Blocking Buffer I), incubated with a 1-5000 dilution of Avidx-AP in Blocking Buffer I for 30 minutes, washed twice with 5% SDS in PBS for 5 minutes, rinsed twice with Assay Buffer, incubated for 5 minutes in 0.25 mM dioxetane phosphate in Assay Buffer and exposed to X-ray film for 5 minutes. The membrane strips incubated with CSPD, and TFE were rinsed with 0.1M diethanolamine, 1 mM MgCl2, pH 9.5 and those incubated with CDP-Star, and TFE-ADP-Star were rinsed with the same buffer at pH 9.0. The Assay Buffer for CSPD and TFE was 0.1M diethanolamine, 1 mM MgCl2, pH 9.5 and for CD-Star, and TFE-ADP-Star was the same buffer at pH 9.0.

Experiment [4] concerns Alkaline phosphatase. As to the kind of experiment: Enzymatic triggering of the prepared dioxetane with alkaline phosphatase to produce light. The format is biochemical. On the procedure: 480 milligrams of chromatographed disodium 2-chloro-5-(2,2,2-trifluoroethoxy tricyclo[3.3.1.1^3,7 ]dec-2-ylidenemethyl)phenyl phosphate was placed in a tube and wet down with anhydrous methanol, 4 mL. Chloroform, 40 mL, was added to obtain a solution. A solution of tetraphenylporphine (TPP), 6 milligrams in 3 mL chloroform, was then added to yield a pink-purple reaction mixture. The solution was cooled in an ice bath while sparging with oxygen through a Pasteur pipette for 5 minutes. The gas flow was continued while the solution was irradiated with a 400 watt sodium vapor lamp which had been filtered with a 3.0 mil thickness of DuPont Kapton film. After 40 minutes, a small sample was blown down and dissolved in water which contained 0.1% NaHCO3. Analytical HPLC, under conditions described above for the starting material, indicated a new product which eluted at 12.1 minutes. The starting material, eluting at 12.5 minutes, was present in just a trace amount. The reaction was stripped of solvents and pumped to yield a dark red foam. This was dissolved in 80 mL water which contained 5 drops of 0.5M NaOH. The solution was filtered to remove insolubles, and was preparatively chromatographed on a one inch PLRP-S column (Polymer Laboratories) using an acetonitrile/water gradient. The product peak was shaved on the front and in the back, collecting only the middle cut. […]

The mark [5] stands for this setting: nylon membrane blotting, TABLE III.

On to `COC1(c2ccc(Cl)c(OP(=O)(O)O)c2)OOC12C1CC3CC(C1)CC2C3` (stereo not shown) [ADP-Star], for which the “PEAK INTENSITY” value in experiment [1] was 682 RLU. Besides, the “T1/2 (chemiluminescence half-life)” value in experiment [2] worked out at 2.7 min.

With `COC1(c2cccc(OP(=O)(O)O)c2)OOC12C1CC3CC(C1)CC2C3` (stereo not shown) [AMPPD, 3-(2'-spiroadamantane)-4-methoxy-4-(3"-phosphoryloxy)-phenyl-1,2-dioxetanedisodium salt], the “t1/2 (chemiluminescence half-life)” value in experiment [2] is given as 2.1 min.

As for `COC1(c2ccc(Cl)c(OP(=O)(O)O)c2)OOC12C1CC3CC2CC(Cl)(C3)C1` (stereo not shown) [CDP-Star], the “DNA CONC. (detection sensitivity)” value in experiment [3] is reported as 0.86 PICOGRAMS. For the same compound, the “PEAK INTENSITY” value in experiment [1] came out at 863 RLU. The “T1/2 (chemiluminescence half-life)” value in experiment [2] worked out at 1.2 min.

Take `COC1(c2cccc(OP(=O)(O)O)c2)OOC12C1CC3CC2CC(Cl)(C3)C1` (stereo not shown) [CSPD]: the “DNA CONC. (detection sensitivity)” value in experiment [3] came out at 23.3 PICOGRAMS. For the same compound, the “PEAK INTENSITY” value in experiment [1] amounted to 200 RLU. Further, in experiment [2], the “T1/2 (chemiluminescence half-life)” value was 0.6 min. For the same compound, the “half-life compared with TFE” value in experiment [2] (by itself in a buffer) is “shorter than TFE”.

On to `O=P(O)(O)Oc1cc(C2(OCC(F)(F)F)OOC23C2CC4CC(C2)CC3C4)ccc1Cl` (stereo not shown) [TFE-ADP-Star, Disodium 2-chloro-5-(4-(2,2,2-trifluoroethoxy)spiro{1,2-dioxetane-3,2'-tricyclo[3.3.1.1^3,7]decan}-4-yl-phenyl phosphate], for which, in experiment [4], the “light production on enzymatic triggering with alkaline phosphatase” value was “produce light”. Besides, the “DNA CONC. (detection sensitivity)” value in experiment [3] was determined as 0.0107 PICOGRAMS. In experiment [3] (setting [5]), the “amount of DNA detected relative to TFE” value is “close to one thousand times less DNA than TFE” and the “sensitivity compared with CDP-Star” value is “more sensitive than CDP-Star”. In experiment [1], the “PEAK INTENSITY” value was determined as 390 RLU. For the same compound, in experiment [1] (comment on TABLE II), the “chemiluminescent signal intensity / relative emission efficiency” value is listed as “generates a higher intensity signal”. Also, in experiment [2], the “T1/2 (chemiluminescence half-life)” value worked out at 2.0 min and the “T1/2 (chemiluminescence half-life), with Sapphire II enhancer” value is 5.0 min.

For the compound `O=P([O-])([O-])Oc1cccc(C2(OCC(F)(F)F)OOC23C2CC4CC3CC(Cl)(C4)C2)c1.[Na+].[Na+]` (stereo not shown) [TFE-CDP-Star, Disodium 3-(4-(2,2,2-trifluoroethoxy)spiro{1,2-dioxetane-3,2'-(5'-chloro)tricyclo [3.3.1,1^3,7]decan}-4-yl)phenyl phosphate], the “duration of burst of light on addition of excess alkaline phosphatase” value in experiment [4] (HPLC peak of basified reaction sample, pH 10 aqueous diethanolamine buffer, excess alkaline phosphatase) was determined as 3 min.

`O=P(O)(O)Oc1cccc(C2(OCC(F)(F)F)OOC23C2CC4CC(C2)CC3C4)c1` (stereo not shown) [TFE]: the “DNA CONC. (detection sensitivity)” value in experiment [3] was 7.7 PICOGRAMS. Besides, the “PEAK INTENSITY” value in experiment [1] is 282 RLU. Moreover, in experiment [2], the “T1/2 (chemiluminescence half-life)” value amounted to 0.9 min; the “T1/2 (chemiluminescence half-life), with Sapphire II enhancer” value stood at 15.5 min; the “t1/2 (chemiluminescence half-life)” value was 0.9 min. In addition, in experiment [2] (in the presence of enhancers), the “t1/2 in the presence of enhancers” value stood at 15 min.
